# Target: T1, human HSD17β13 (stable HEK293T cell line overexpressing human HSD17β13) (Homo sapiens, UniProt Q7Z5P4)
# T1 construct: expressed in transfected cells
# T1 sequence (Q7Z5P4 20-300): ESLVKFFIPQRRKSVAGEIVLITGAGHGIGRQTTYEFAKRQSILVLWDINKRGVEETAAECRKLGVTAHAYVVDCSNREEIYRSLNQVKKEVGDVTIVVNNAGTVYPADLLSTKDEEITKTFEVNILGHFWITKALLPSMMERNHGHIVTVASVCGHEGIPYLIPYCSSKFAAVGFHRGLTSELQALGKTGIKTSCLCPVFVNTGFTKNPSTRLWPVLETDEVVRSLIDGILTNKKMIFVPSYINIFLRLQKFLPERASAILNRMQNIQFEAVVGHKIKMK
# Test: HSD17β13 inhibitor cell-based screening assay (conversion of estradiol-d2 to estrone-d2 by RF-MS)
# Conditions: conversion of estradiol-d2 to estrone-d2 after 24 hours
# Description: The purpose of this cell-based assay is to determine the cellular efficacy (IC50) of HSD17β13 inhibitors in a stable HEK293 T cell line overexpressing human HSD17β13. The assay measures by Rapid Fire mass-spectrometry (RF-MS) the conversion of estradiol-d2 to estrone-d2. Cytotoxicity was also assessed via luminescent signal generated by the ATPlite viability assay reagent. To screen compounds for HSD17013 inhibition, black 384-well plates were seeded with 1000× concentration of compounds in a 9-point 1:3 dilution curve (final top concentration of 10 μM) as well as 1000× concentration of 17β-estradiol-d2 (5 μM final concentration) added to all wells. HEK293T cells stably overexpressing human HSD17013 and the parent HEK293T cell lines were then seeded in the plates on top of the compounds and substrate in MEM media containing 1% charcoal/dextran-treated FBS. Supernatant is collected and immediately frozen after 24 hours of incubation, and conversion of estradiol-d2 to estrone-d2 is measured at Pure Honey by RF-MS. The remaining media in the plate was removed from the wells and replaced with ATPlite viability assay reagent. Luminescent signal from the ATPlite reagent was measured on the Envision plate reader. 10 μL of 10 mM compounds stocks (1000×) dissolved in DMSO were pipetted into the appropriate wells on the 384 LDV plate (Labcyte; cat. no.: LP-0200) and the appropriate volumes of DMSO solvent were included onto an intermediate plate to further dilute the compound stocks to complete the 9-pt dose curve (final top concentration of 10 μM). 10 μL per well of 5 mM estradiol-d2 (1000×) (Cayman; item no.: 9002846) (5 μM final concentration) dissolved in DMSO was seeded into the appropriate number of wells on the same source plate as the compounds. The Echo 650 (Labcyte) was used for compound dilutions and dispensing both the compounds and the substrate onto a dry 384-well black assay plate (Falcon/Corning; cat. no.:353962). Afterwards, cells were immediately counted and seeded onto the plate. Cells were cultured for expansion in EMEM (ATCC; cat. no.: 30-2003)+10% FBS (Hyclone; cat. no.: SH3007003)+1×PenStrep (Gibco; cat. no.: 15140-122). All media for stable cell line overexpressing HSD17013 also included […] zeocin (Invitrogen; cat. no.: 46-0509) for selection. To prepare cells for seeding into the 384-well assay plate, cells were trypsinized for 3 minutes in the incubator. The Trypsin-EDTA (0.25%) (Gibco; cat. no.: 25200056) was neutralized with EMEM complete culture medium warmed to 37° C. Cells were then centrifugated at 300×g for 5 minutes at room temperature. The cell pellet was resuspended in phenol red-free MEM (Gibco; cat. no.: 51200-038)+1% charcoal/dextran-treated FBS (Hyclone; cat. no.: SH3006803) and 1×PenStrep warmed to 37° C. Cells were then counted using the TC20 automated cell-counter (Bio-Rad) and disposable duel chamber counting slides (Bio-Rad; cat. no.: 1450016) for a cell density of 1.5E5 cells/mL to then seed into the assay plate at 7.5E3 cells/well with 50 μL of media per well. Prior to the 24-hour time point, a solution of 1% formic acid (10×) (Honeywell; cat. no.: 94318) in MEM phenol red-free MEM+1% charcoal/dextran-treated FBS and 1×PenStrep was made. ATPlite luminescent ATP detection reagent (PerkinElmer; cat. no.: 6016739) was prepared according to the manufacturer's instructions. A new 384-well Falcon plate (collection plate) was seeded with 2 μL per well of 10× formic acid and then 18 μL of cell supernatant was added onto the formic acid, resulting in a 20 μL per well solution of 0.1% formic acid (1×) in supernatant. The plate of collected supernatant was immediately frozen on dry ice before being stored at −80° C. The collection plate was shipped to Momentum Biotechnologies for analysis. The remaining supernatant in the assay plate was discarded and 25 μL of ATPlite reagent was added to each well. […]
row,SMILES,IC50 [nM]
1,"COC(=O)Cn1c(-c2ccc(OC)cc2C2CC2)nc2sc3c(O)c(Cl)ccc3c2c1=O [Example 45, methyl 2-(7-chloro-2-(2-cyclopropyl-4-methoxyphenyl)-8-hydroxy-4-oxobenzo[4,5]thieno[2,3-d]pyrimidin-3(4H)-yl)acetate]",100 to 500
2,"COc1ccc(-c2nc3sc4c(O)c(Cl)ccc4c3c(=O)n2CCc2cnco2)c(C2CC2)c1 [Example 188, 7-chloro-2-(2-cyclopropyl-4-methoxyphenyl)-8-hydroxy-3-(2-(oxazol-5-yl)ethyl)benzo[4,5]thieno[2,3-d]pyrimidin-4(3H)-one]",100 to 500
3,COc1ccc(-c2nc3sc4c(O)c(Cl)ccc4c3c(=O)n2Cc2cnc(C)s2)c(C2CC2)c1 [Example 192],< 100
4,O=c1c2c(nc(-c3ccc4ccccc4c3C3CC3)n1Cc1cnco1)sc1c(O)c(Cl)ccc12 [Example 145],< 100
5,"COc1ccc(-c2nc3sc4c(O)c(Cl)ccc4c3c(=O)n2Cc2cnoc2)c(C2CC2)c1 [Example 57, 7-chloro-2-(2-cyclopropyl-4-methoxyphenyl)-8-hydroxy-3-(isoxazol-4-ylmethyl)benzo[4,5]thieno[2,3-d]pyrimidin-4(3H)-one]",< 100
6,O=c1c2c(nc(-c3cc(F)c(F)cc3C3CC3)n1Cc1cn[nH]c1)sc1c(O)c(Cl)ccc12 [Example 215],< 100
7,COCCn1cc(Cn2c(-c3ccc(OC)cc3C3CC3)nc3sc4c(O)c(Cl)ccc4c3c2=O)cn1 [Example 95],< 100
8,Cn1ccc(Cn2c(-c3cc(F)c(F)cc3C3CC3)nc3sc4c(O)c(Cl)ccc4c3c2=O)cc1=O [Example 167],< 100
9,COCCOc1ccc(-c2nc3sc4c(O)c(Cl)ccc4c3c(=O)n2Cc2cnco2)c(C2CC2)c1 [Example 74],< 100
10,COc1ccc(-c2nc3sc4c(O)c(Cl)ccc4c3c(=O)n2Cc2cnco2)c(C2CCCC2)c1 [Example 121],100 to 500
11,O=c1c2c(nc(-c3ccc(C(F)F)cc3C3CC3)n1Cc1cnco1)sc1c(O)c(Cl)ccc12 [Example 159],< 100
12,N#Cc1ccc(-c2nc3sc4c(O)c(Cl)ccc4c3c(=O)n2Cc2cnc(C(F)(F)F)nc2)c(C2CC2)c1 [Example 114],< 100
13,"Cc1cc(Cn2c(-c3cc(F)c(F)cc3C3CC3)nc3sc4c(O)c(Cl)ccc4c3c2=O)on1 [Example 60, 7-chloro-2-(2-cyclopropyl-4,5-difluorophenyl)-8-hydroxy-3-((3-methylisoxazol-5-yl)methyl)benzo[4,5]thieno[2,3-d]pyrimidin-4(3H)-one]",< 100
14,N#Cc1cnc(-c2nc3sc4c(O)c(Cl)ccc4c3c(=O)n2Cc2cc(C(F)(F)F)no2)c(C2CC2)c1 [Example 115],< 100
15,"Cc1ncc(Cn2c(-c3cc(F)c(F)cc3C3CC3)nc3sc4c(O)c(Cl)ccc4c3c2=O)o1 [Example 61, 7-chloro-2-(2-cyclopropyl-4,5-difluorophenyl)-8-hydroxy-3-((2-methyloxazol-5-yl)methyl)benzo[4,5]thieno[2,3-d]pyrimidin-4(3H)-one]",< 100
16,O=c1c2c(nc(-c3ncc(F)cc3C3CC3)n1Cc1cnc(C(F)(F)F)nc1)sc1c(O)c(Cl)ccc12 [Example 101],< 100
17,O=c1c2c(nc(-c3ncc(C(F)(F)F)cc3C3CC3)n1Cc1cnco1)sc1c(O)c(Cl)ccc12 [Example 90],< 100
18,O=c1c2c(nc(-c3cnc(C(F)(F)F)cc3C3CC3)n1Cc1ccc(C(F)(F)F)nc1)sc1c(O)c(Cl)ccc12 [Example 179],< 100
19,COCc1cc(Cn2c(-c3cc(F)c(F)cc3C3CC3)nc3sc4c(O)c(Cl)ccc4c3c2=O)on1 [Example 208],< 100
20,"COc1ccc(-c2nc3sc4c(O)c(C=O)ccc4c3c(=O)n2Cc2cnco2)c(C2CC2)c1 [Example 31, 2-(2-cyclopropyl-4-methoxyphenyl)-8-hydroxy-3-(oxazol-5-ylmethyl)-4-oxo-3,4-dihydrobenzo[4,5]thieno[2,3-d]pyrimidine-7-carbaldehyde]",1000 to 100000
21,CS(=O)(=O)c1ccc(-c2nc3sc4c(O)c(Cl)ccc4c3c(=O)n2Cc2cc(C(F)(F)F)no2)c(C2CC2)c1 [Example 81],< 100

# Next, values leading:
row,IC50 [nM],SMILES
1,< 100,O=c1c2c(nc(-c3cnc(C(F)(F)F)cc3C3CC3)n1Cc1cc(C(F)(F)F)no1)sc1c(O)c(Cl)ccc12 [Example 173]
2,< 100,Cn1cc(Cn2c(-c3ccc(C(F)F)cc3C3CC3)nc3sc4c(O)c(Cl)ccc4c3c2=O)ccc1=O [Example 186]
3,< 100,"N#Cc1ccc(-c2nc3sc4c(O)c(Cl)ccc4c3c(=O)n2Cc2ccc(C(F)(F)F)nc2)c(C2CC2)c1 [Example 113, 4-(7-chloro-8-hydroxy-4-oxo-3-((6-(trifluoromethyl)pyridin-3-yl)methyl)-3,4-dihydrobenzo[4,5]thieno[2,3-d]pyrimidin-2-yl)-3-cyclopropylbenzonitrile]"
4,< 100,"COc1cc(C2CC2)c(-c2nc3sc4c(O)c(Cl)ccc4c3c(=O)n2Cc2cnco2)cc1Br [Example 104, 2-(5-bromo-2-cyclopropyl-4-methoxyphenyl)-7-chloro-8-hydroxy-3-(oxazol-5-ylmethyl)benzo[4,5]thieno[2,3-d]pyrimidin-4(3H)-one]"
5,< 100,O=c1c2c(nc(-c3ncc(F)cc3C3CC3)n1Cc1cnco1)sc1c(O)c(Cl)ccc12 [Example 89]
6,< 100,Cc1cc(C2CC2)c(-c2nc3sc4c(O)c(Cl)ccc4c3c(=O)n2Cc2cnco2)s1 [Example 94]
7,< 100,O=c1c2c(nc(-c3cc(F)c(Cl)cc3C3CC3)n1Cc1cc(C(F)(F)F)no1)sc1c(O)c(Cl)ccc12 [Example 84]
8,< 100,COc1ccc(-c2nc3sc4c(O)c(Cl)ccc4c3c(=O)n2Cc2nncs2)c(C2CC2)c1 [Example 202]
9,< 100,O=c1c2c(nc(-c3cc(F)c(F)cc3C3CC3)n1Cc1nncs1)sc1c(O)c(Cl)ccc12 [Example 209]
10,< 100,"O=c1c2c(nc(-c3ncc(C(F)F)cc3C3CC3)n1Cc1cnc(C(F)(F)F)nc1)sc1c(O)c(Cl)ccc12 [Example 116, 7-chloro-2-(3-cyclopropyl-5-(difluoromethyl)pyridin-2-yl)-8-hydroxy-3-((2-(trifluoromethyl)pyrimidin-5-yl)methyl)benzo[4,5]thieno[2,3-d]pyrimidin-4(3H)-one]"
11,< 100,Cn1ncc2cc(-c3nc4sc5c(O)c(Cl)ccc5c4c(=O)n3Cc3cc(C(F)(F)F)no3)c(C3CC3)cc21 [Example 164]
12,< 100,O=c1c2c(nc(-c3cc(F)c(C(F)F)cc3C3CC3)n1Cc1ccc(C(F)(F)F)nc1)sc1c(O)c(Cl)ccc12 [Example 181]
13,< 100,O=c1c2c(nc(-c3cc(F)c(F)cc3C3CC3)n1Cc1cnc(C(F)(F)F)nc1)sc1c(O)ccc(F)c12 [Example 184]
14,< 100,COc1cccc(-c2nc3sc4c(O)c(Cl)ccc4c3c(=O)n2Cc2cnco2)c1C1CC1 [Example 146]
15,< 100,O=c1c2c(nc(-c3ncc(F)cc3C3CC3)n1Cc1ccc(C(F)(F)F)nc1)sc1c(O)c(Cl)ccc12 [Example 102]

# — patent publication US20250154163A1, “Pyrimidinone-Containing 17-Beta-Hydroxysteroid Dehydrogenase Type 13 Inhibitors” (ENANTA PHARMACEUTICALS, INC., priority 2023, published 2025)
